In US12384776B2, “Compounds and uses thereof” (Foghorn Therapeutics Inc., priority 2019, dated 2025):

Molecular target: Nanoluciferase-BRD9 fusion protein (3×FLAG-NLuc-BRD9) in SYO-1 cells (Homo sapiens (Human), UniProt Q9H8M2)
Test: SYO1 BRD9 NanoLuc degradation assay
Format: cell-based
Conditions: SYO-1 cells expressing 3×FLAG-NLuc-BRD9, 6 hours incubation, top dose 1 μM
Experimental: Procedure: A stable SYO-1 cell line expressing 3×FLAG-NLuc-BRD9 was generated. On day 0 cells were seeded in 30 μL media into each well of 384-well cell culture plates. The seeding density was 8000 cells/well. On day 1, cells were treated with 30 nL DMSO or 30 nL of 3-fold serially DMSO-diluted compounds (10 points in duplicates with 1 μM as final top dose). Subsequently plates were incubated for 6 hours in a standard tissue culture incubator and equilibrated at room temperature for 15 minutes. Nanoluciferase activity was measured by adding 15 μL of freshly prepared Nano-Glo Luciferase Assay Reagent (Promega N1130), shaking the plates for 10 minutes and reading the bioluminescence using an EnVision reader.
Results: The Inhibition % was calculated using the following formula: % Inhibition=100×(LumHC−LumSample)/(LumHC−LumLC). DMSO treated cells are employed as High Control (HC) and 1 μM of a known BRD9 degrader standard treated cells are employed as Low Control (LC).

Sequence of Nanoluciferase-BRD9 fusion protein (3×FLAG-NLuc-BRD9) in SYO-1 cells (Q9H8M2 whole entry, the tested form may be a part): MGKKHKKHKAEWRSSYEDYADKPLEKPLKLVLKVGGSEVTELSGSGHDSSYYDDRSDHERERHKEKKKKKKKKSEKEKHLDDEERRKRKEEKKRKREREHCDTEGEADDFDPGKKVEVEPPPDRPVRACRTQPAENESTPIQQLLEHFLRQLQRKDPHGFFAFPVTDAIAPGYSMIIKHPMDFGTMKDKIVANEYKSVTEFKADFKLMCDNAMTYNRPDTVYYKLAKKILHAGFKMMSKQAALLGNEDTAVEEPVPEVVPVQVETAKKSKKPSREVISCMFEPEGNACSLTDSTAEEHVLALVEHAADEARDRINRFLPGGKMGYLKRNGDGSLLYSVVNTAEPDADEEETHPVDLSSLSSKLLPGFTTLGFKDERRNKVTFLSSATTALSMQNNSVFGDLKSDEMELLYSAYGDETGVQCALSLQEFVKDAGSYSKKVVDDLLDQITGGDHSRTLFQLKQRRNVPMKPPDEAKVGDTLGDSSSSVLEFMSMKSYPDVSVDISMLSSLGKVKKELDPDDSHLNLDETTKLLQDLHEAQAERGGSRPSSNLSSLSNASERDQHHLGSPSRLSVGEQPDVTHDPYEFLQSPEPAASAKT

IC50 [nM]	Structure (SMILES)
< 10	CNC(=O)N1CCc2c(-c3cc(OC)c(CN4CCC(C#Cc5ccc6c(c5)C(=O)N(C5CCC(=O)NC5=O)C6=O)CC4)c(OC)c3)cn(C)c(=O)c2C1 (stereo not drawn) [Compound D143]
< 10	CNC(=O)N1CCc2c(-c3cc(OC)c(CN4CCN(CCC5CCN(c6ccc7c(c6)C(=O)N(C6CCC(=O)NC6=O)C7=O)CC5)C(COC)C4)c(OC)c3)cn(C)c(=O)c2C1 (stereo not drawn) [Compound D103]
≥ 1000	CNC(=O)N1CCc2c(-c3cc(OC)c(CN4CCC(CCN5CCN(c6ccc7c(c6)C6(CC6)N(C6CCC(=O)NC6=O)C7=O)CC5)CC4)c(OC)c3)cn(C)c(=O)c2C1 (stereo not drawn) [Compound D54]
100 to 1000	COc1cc(-c2cn(C)c(=O)c3c2CCN(C(=O)NCCN2CC4(CCN(c5ccc6c(c5)C(=O)N(C5CCC(=O)NC5=O)C6=O)CC4)C2)C3)cc(OC)c1CN(C)C (stereo not drawn) [Compound D191]
< 10	CNC(=O)N1CCc2c(-c3cc(OC)c(CN4CCN(CCC5CCN(c6ccc7c(c6)C(=O)N(C6CCC(=O)NC6=O)C7=O)CC5)C5(CCC5)C4)c(OC)c3)cn(C)c(=O)c2C1 (stereo not drawn) [Compound D95]
10 to 100	CNC(=O)N1CCc2c(-c3cc(OC)c(CN4CC5(CCC(N6Cc7cc8c(cc7C6)C(=O)N(C6CCC(=O)NC6=O)C8=O)CC5)C4)c(OC)c3)cn(C)c(=O)c2C1 (stereo not drawn) [Compound D176]
< 10	COCCNC(=O)N1CCc2c(-c3cc(OC)c(CN4CCN(CCC5CCN(c6ccc7c(c6)C(=O)N(C6CCC(=O)NC6=O)C7=O)CC5)CC4)c(OC)c3)cn(C)c(=O)c2C1 (stereo not drawn) [Compound D43]
100 to 1000	COc1cc(-c2cn(C)c(=O)c3c2CCN(C(=O)NCCN2CCC(OCC4CCN(c5ccc6c(c5)C(=O)N(C5CCC(=O)NC5=O)C6=O)CC4)C2)C3)cc(OC)c1CN(C)C (stereo not drawn) [Compound D206]
100 to 1000	COc1cc(-c2cn(C)c(=O)c3c2CCN(C(=O)NCCCN2CC4(CCN4c4ccc5c(c4)C(=O)N(C4CCC(=O)NC4=O)C5=O)C2)C3)cc(OC)c1CN(C)C (stereo not drawn) [Compound D241]
< 10	CNC(=O)N1CCc2c(-c3cc(OC)c(CN4CCC(C(C)(C)N5CCC6(CC5)CC(Oc5ccc7c(c5)C(=O)N(C5CCC(=O)NC5=O)C7=O)C6)CC4)c(OC)c3)cn(C)c(=O)c2C1 (stereo not drawn) [Compound D114]
< 10	CNC(=O)N1CCc2c(-c3cc(OC)c(CN4CC(C(C)N5CCC6(CC5)CN(c5ccc7c(c5)C(=O)N(C5CCC(=O)NC5=O)C7=O)C6)C4)c(OC)c3)cn(C)c(=O)c2C1 (stereo not drawn) [Compound D107]
< 10	CNC(=O)N1CCc2c(-c3cc(OC)c(CN4CCC(=CCN5CCN(c6ccc7c(c6)C(=O)N(C6CCC(=O)NC6=O)C7=O)CC5)CC4)c(OC)c3)cn(C)c(=O)c2C1 (stereo not drawn) [Compound D127]
< 10	COc1cc(-c2cn(C)c(=O)c3c2CCN(C(=O)NCCCN2CCC4C(C2)CN4c2ccc4c(c2)C(=O)N(C2CCC(=O)NC2=O)C4=O)C3)cc(OC)c1CN(C)C (stereo not drawn) [Compound D231]
< 10	CNC(=O)N1CCc2c(-c3cc(OC)c(C(C)N4CCC(CN5CCC6(CC5)CC(Oc5ccc7c(c5)C(=O)N(C5CCC(=O)NC5=O)C7=O)C6)CC4)c(OC)c3)cn(C)c(=O)c2C1 (stereo not drawn) [Compound D106]
10 to 100	COc1cc(-c2cn(C)c(=O)c3c2CCN(C(=O)NCC2CC4(CCN(CCOc5ccc6c(c5)C(=O)N(C5CCC(=O)NC5=O)C6=O)CC4)C2)C3)cc(OC)c1CN(C)C (stereo not drawn) [Compound D267]
10 to 100	COc1cc(-c2cn(C)c(=O)c3c2CCN(C(=O)NCCCN2CCC4(CCN4c4ccc5c(c4)C(=O)N(C4CCC(=O)NC4=O)C5=O)C2)C3)cc(OC)c1CN(C)C (stereo not drawn) [Compound D261]
< 10	CNC(=O)N1CCc2c(-c3cc(OC)c(CN4CCC(CN(C)C5CCN(c6ccc7c(c6)C(=O)N(C6CCC(=O)NC6=O)C7=O)CC5)CC4)c(OC)c3)cn(C)c(=O)c2C1 (stereo not drawn) [Compound D195]
10 to 100	COc1cc(-c2cn(C)c(=O)c3c2CCN(C(=O)NCCCN2CC4(CCN(c5ccc6c(c5)C(=O)N(C5CCC(=O)NC5=O)C6=O)C4)C2)C3)cc(OC)c1CN(C)C (stereo not drawn) [Compound D210]
10 to 100	CNC(=O)N1CCc2c(-c3cc(OC)c(CN4CCC(CCN5CCN(c6cc7c(c(F)c6F)CN(C6CCC(=O)NC6=O)C7=O)CC5)CC4)c(OC)c3)cn(C)c(=O)c2C1 (stereo not drawn) [Compound D75]
< 10	CNC(=O)N1CCc2c(-c3cc(OC)c(CN4CCN(c5ccc6c(c5)C(=O)N(C5CCC(=O)NC5=O)C6=O)CC4)c(OC)c3)cn(C)c(=O)c2C1 (stereo not drawn) [Compound D131]
10 to 100	COc1cc(-c2cn(C)c(=O)c3c2CCN(C(=O)NC2CCC4CN(CCOc5ccc6c(c5)C(=O)N(C5CCC(=O)NC5=O)C6=O)CC42)C3)cc(OC)c1CN(C)C (stereo not drawn) [Compound D271]
10 to 100	COc1cc(-c2cn(C)c(=O)c3c2CCN(C(=O)NCCN2CCC(OC4CCN(c5ccc6c(c5)C(=O)N(C5CCC(=O)NC5=O)C6=O)CC4)CC2)C3)cc(OC)c1CN(C)C (stereo not drawn) [Compound D186]
10 to 100	CNC(=O)N1CCc2c(-c3cc(OC)c(CN4CCC5(CC4)CN(C(=O)CCCOc4ccc6c(c4)C(=O)N(C4CCC(=O)NC4=O)C6=O)CCO5)c(OC)c3)cn(C)c(=O)c2C1 (stereo not drawn) [Compound D203]
< 10	CNC(=O)N1CCc2c(-c3cc(OC)c(CN4CCC(CCCN5Cc6cc7c(cc6C5)C(=O)N(C5CCC(=O)NC5=O)C7=O)CC4)c(OC)c3)cn(C)c(=O)c2C1 (stereo not drawn) [Compound D178]
100 to 1000	COc1cc(-c2cn(C)c(=O)c3c2CCN(C(=O)NC2CCC4CN(CCCCN5CCN(c6ccc7c(c6)C(=O)N(C6CCC(=O)NC6=O)C7=O)CC5)CC42)C3)cc(OC)c1CN(C)C (stereo not drawn) [Compound D221]
10 to 100	CNC(=O)N1CCc2c(-c3cc(OC)c(CN4CC(CC(=O)N5CCC6(CC5)CC(Oc5ccc7c(c5)C(=O)N(C5CCC(=O)NC5=O)C7=O)C6)C4)c(OC)c3)cn(C)c(=O)c2C1 (stereo not drawn) [Compound D275]
< 10	[2H]C1([2H])CC([2H])(N2C(=O)c3ccc(N4CCN(CCC5CCN(Cc6c(OC)cc(-c7cn(C)c(=O)c8c7CCN(C(=O)NC)C8)cc6OC)CC5)CC4)cc3C2=O)C(=O)NC1=O (stereo not drawn) [Compound D80]
100 to 1000	COc1cc(-c2cn(C)c(=O)c3c2CCN(C(=O)NCCN2CCC(OC4CCN(c5ccc6c(c5)C(=O)N(C5CCC(=O)NC5=O)C6=O)CC4)C2)C3)cc(OC)c1CN(C)C (stereo not drawn) [Compound D204]

Same assay, conditions: SYO-1 cells, 6 hours, Table 6A

IC50 [nM]	Structure (SMILES)
< 10	CNC(=O)N1CCc2c(-c3cc(OC)c(CN(C)C(=O)CCCCCOc4cccc5c4C(=O)N(C4CCC(=O)NC4=O)C5=O)c(OC)c3)cn(C)c(=O)c2C1 (stereo not drawn) [Compound D25, 5-[4-[(6-[[2-(2,6-dioxopiperidin-3-yl)-1,3-dioxoisoindol-4-yl]oxy]-N-methylhexanamido)methyl]-3,5-dimethoxyphenyl]-N,7-dimethyl-8-oxo-3,4-dihydro-1H-2,7-naphthyridine-2-carboxamide]
> 10	CNC(=O)N1CCc2c(-c3cc(OC)c(CN4CCN(C(=O)CCCOc5cccc6c5C(=O)N(C5CCC(=O)NC5=O)C6=O)CC4)c(OC)c3)cn(C)c(=O)c2C1 (stereo not drawn) [Compound D1, 5-(4-[[4-(4-[[2-(2,6-dioxopiperidin-3-yl)-1,3-dioxoisoindol-4-yl]oxy]butanoyl)piperazin-1-yl]methyl]-3,5-dimethoxyphenyl)-N,7-dimethyl-8-oxo-3,4-dihydro-1H-2,7-naphthyridine-2-carboxamide]
> 10	CNC(=O)N1CCc2c(-c3cc(OC)c(CN4CCN(C(=O)COc5cccc6c5C(=O)N(C5CCC(=O)NC5=O)C6=O)CC4)c(OC)c3)cn(C)c(=O)c2C1 (stereo not drawn) [Compound D2, 5-(4-[[4-(2-[[2-(2,6-dioxopiperidin-3-yl)-1,3-dioxoisoindol-4-yl]oxy]acetyl)piperazin-1-yl]methyl]-3,5-dimethoxyphenyl)-N,7-dimethyl-8-oxo-3,4-dihydro-1H-2,7-naphthyridine-2-carboxamide]

Same assay, conditions: SYO-1 cells, 6 hours, Table 6A; read-out: SYO1 BRD9-NanoLuc degradation IC50

DC50 [nM]	Structure (SMILES)
> 10	COc1cc(-c2cn(C)c(=O)c3c2CCN(C(=O)NCCS(=O)(=O)CCNc2cccc4c2C(=O)N(C2CCC(=O)NC2=O)C4=O)C3)cc(OC)c1CN(C)C (stereo not drawn) [Compound D7, 5-[4-[(dimethylamino)methyl]-3,5-dimethoxyphenyl]-N-[2-(2-[[2-(2,6-dioxopiperidin-3-yl)-1,3-dioxoisoindol-4-yl]amino]ethanesulfonyl)ethyl]-7-methyl-8-oxo-3,4-dihydro-1H-2,7-naphthyridine-2-carboxamide formic acid]

Same assay, conditions: SYO-1 cells, 6 hours, Table 6C

IC50 [nM]	Structure (SMILES)
< 10	COc1cc(-c2cn(C)c(=O)c3c2CCC3)cc(OC)c1CN1CC(C#Cc2ccc3c(c2)C(=O)N(C2CCC(=O)NC2=O)C3)C1 (stereo not drawn) [Compound D365]
< 10	CNC(=O)N1CCc2c(-c3cc(OC)c(CN4CCN(CCC5CCN(c6ccc7c(c6)CN(C6CCC(=O)NC6=O)C7=O)CC5)CC4COC)c(OC)c3)cn(C)c(=O)c2C1 (stereo not drawn) [Compound D329]
< 10	CNC(=O)N1CCc2c(-c3cc(OC)c(CN4CCC(CN5CCC6(CN(c7ccc8c(c7)CN(C7CCC(=O)NC7=O)C8=O)C6)C(F)(F)C5)CC4)c(OC)c3)cn(C)c(=O)c2C1 (stereo not drawn) [Compound D339]
≥ 1000	[2H]C([2H])([2H])n1cc(-c2cc(OC)c(CN3CCN(CCC4CCN(c5ccc6c(c5)C(=O)N(C5CCC(=O)NC5=O)C6)CC4)CC3)c(OC)c2)c2c(c1=O)CN(C(=O)NCC(F)F)CC2 (stereo not drawn) [Compound D316]
< 10	COc1cc(-c2cn(C)c(=O)c3c2COC3)cc(OC)c1CN1CC(C#Cc2ccc3c(c2)C(=O)N(C2CCC(=O)NC2=O)C3)C1 (stereo not drawn) [Compound D367]
< 10	COc1cc(-c2cn(C)c(=O)c3c2COC3)cc(OC)c1CN1CCC2(CC1)CN(c1ccc3c(c1)C(=O)N(C1CCC(=O)NC1=O)C3)C2 (stereo not drawn) [Compound D357]
< 10	COc1cc(-c2cn(C)c(=O)c3c2COC3)cc(OC)c1CN1CCC(CN2CCC3(CC2)CN(c2ccc4c(c2)C(=O)N(C2CCC(=O)NC2=O)C4)C3)CC1 (stereo not drawn) [Compound D372]
